Each structure is given as a SMILES string. Some results are limits rather than exact numbers.

These results are taken from US11071731B2, “Allosteric modulators of the mu opioid receptor” (Chiromics, LLC, priority 2017, dated 2021).

Test [1] deals with T1, mu opioid receptor (MOR) (Homo sapiens, UniProt P35372). Description: PathHunter β-arrestin recruitment assay, PAM mode with EC20 endomorphin-1. The note with it: for allosteric activity for β-arrestin recruitment: EC20 endomorphin-1 concentration of 4.5 nM. The format is cell-based. The method, boiled down: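 β-Arrestin recruitment to the receptor was tracked by chemiluminescent β-galactosidase activity from complementing fragments (ED on receptor, EA on β-arrestin). Per-compound outputs were EC50 and percent maximal response.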

For test [2], the target named is T1, mu opioid receptor (MOR). Description: Hit Hunter cAMP signaling assay (adenylyl cyclase inhibition), PAM mode with EC20 endomorphin-1. The format is cell-based.
[3] abbreviates: maximal response for β-arrestin recruitment.
Setting [4] is: β-arrestin recruitment, read-out: β-arr. EC50.
Setting [5] is: adenylyl cyclase inhibition, read-out: cAMP EC50.
Where [6] appears, read: maximal response for adenylyl cyclase inhibition.
Setting [7] is: maximal response, β-arrestin recruitment.
Where [8] appears, read: maximal response, adenylyl cyclase inhibition.
The mark [9] stands for this setting: cAMP EC50, adenylyl cyclase inhibition.

T1 sequence (P35372 whole entry, the tested form may be a part): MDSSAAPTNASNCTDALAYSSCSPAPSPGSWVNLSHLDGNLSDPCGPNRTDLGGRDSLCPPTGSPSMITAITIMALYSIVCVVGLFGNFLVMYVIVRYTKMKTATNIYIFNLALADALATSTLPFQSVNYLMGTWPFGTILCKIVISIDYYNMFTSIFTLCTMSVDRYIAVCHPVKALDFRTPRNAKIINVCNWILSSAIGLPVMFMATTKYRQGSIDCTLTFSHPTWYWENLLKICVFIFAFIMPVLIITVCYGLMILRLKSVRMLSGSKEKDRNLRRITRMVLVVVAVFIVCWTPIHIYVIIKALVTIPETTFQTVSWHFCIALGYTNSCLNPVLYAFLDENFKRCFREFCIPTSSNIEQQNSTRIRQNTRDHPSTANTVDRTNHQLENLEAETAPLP

Regarding `O=S(=O)(Cc1ccc(Cl)c(Cl)c1)N1CCCCC1c1cccc(C(F)(F)F)c1` (stereo not drawn) [Compound 23], the “β-arr Max. Resp.” value at mu opioid receptor (MOR) [1] (setting [3]) is listed as “F (F represents a maximal response of > 60%)”. Moreover, the EC50 at mu opioid receptor (MOR) [1] (setting [4]) and on mu opioid receptor (MOR) [2] (setting [5]) was over 2.1 µM each time. Besides, the “cAMP Max. Resp.” value on mu opioid receptor (MOR) [2] (setting [6]) is “D (D represents a maximal response of < 40%)”.
For the compound `Fc1ccc(C2CCCCN2c2cccnc2N2CCOCC2)cc1Cl` (stereo not drawn) [compound 479], at mu opioid receptor (MOR) [1] (setting [7]), the “β-arr Max. Resp.” value was “F (F represents a maximal response of > 60%)”. Besides, the EC50 on mu opioid receptor (MOR) [1] (setting [4]) and on mu opioid receptor (MOR) [2] (setting [5]) was over 2.1 µM each time. For the same compound, at mu opioid receptor (MOR) [2] (setting [8]), the “cAMP Max. Resp.” value was “D (D represents a maximal response of < 40%)”.
As for `Fc1cncc(C2CCCCN2c2nc(Cl)ncc2F)c1` (stereo not drawn) [compound 370], the “β-arr Max. Resp.” value at mu opioid receptor (MOR) [1] (setting [3]) is listed as “D (D represents a maximal response of < 40%)”. For the same compound, the EC50 at mu opioid receptor (MOR) [1] (setting [4]) and at mu opioid receptor (MOR) [2] (setting [9]) was under 0.7 µM each time. In addition, the “cAMP Max. Resp.” value at mu opioid receptor (MOR) [2] (setting [6]) is on record as “D (D represents a maximal response of < 40%)”.
Consider `O=C1CCN(c2nc(Cl)ncc2F)C(c2cc(F)cc(C(F)(F)F)c2)C1` (stereo not drawn) [compound 238], for which, on mu opioid receptor (MOR) [1] (setting [3]), the “β-arr Max. Resp.” value is “E (E represents a maximal response of 40-60%)”. The EC50 on mu opioid receptor (MOR) [1] (setting [4]) and on mu opioid receptor (MOR) [2] (setting [9]) was over 2.1 µM in each case. The “cAMP Max. Resp.” value on mu opioid receptor (MOR) [2] (setting [6]) is “D (D represents a maximal response of < 40%)”.
Consider `Fc1cc(C2C3CCC(C3)N2Cc2cc(Cl)ccc2F)cc(C(F)(F)F)c1` (stereo not drawn) [compound 216], for which the “allosteric activity for β-arrestin recruitment” value on mu opioid receptor (MOR) [1] was “high positive allosteric activity”; on mu opioid receptor (MOR) [1] (listed as Compound No. 216), “high allosteric modulatory capability”. In addition, the “β-arr Max. Resp.” value on mu opioid receptor (MOR) [1] (setting [3]) is listed as “F (F represents a maximal response of > 60%)”. The EC50 is under 0.7 µM on mu opioid receptor (MOR) [1] (setting [4]) and over 2.1 µM at mu opioid receptor (MOR) [2] (setting [9]). Moreover, the “allosteric activity for cAMP signaling” value at mu opioid receptor (MOR) [2] (EC20 endomorphin-1 concentration of 0.45 nM) is recorded as “silent allosteric activity”. Also, the “cAMP Max. Resp.” value on mu opioid receptor (MOR) [2] (setting [6]) is given as “D (D represents a maximal response of < 40%)”.
As to `COc1ccc(C2CCCCN2S(=O)(=O)c2ccc(C)cc2)cc1Br` (stereo not drawn) [compound 12], the “β-arr Max. Resp.” value on mu opioid receptor (MOR) [1] (setting [3]) is on record as “F (F represents a maximal response of > 60%)”. Moreover, the EC50 is over 2.1 µM on mu opioid receptor (MOR) [1] (setting [4]) and 0.7 to 2.1 µM on mu opioid receptor (MOR) [2] (setting [9]). Also, the “cAMP Max. Resp.” value at mu opioid receptor (MOR) [2] (setting [6]) is recorded as “E (E represents a maximal response of 40-60%)”.
Regarding `Fc1ccc(C2CC(F)CN2c2nc(Cl)ncc2F)cc1Cl` (stereo not drawn) [compound 464], the “β-arr Max. Resp.” value at mu opioid receptor (MOR) [1] (setting [7]) was “E (E represents a maximal response of 40-60%)”. The 50% effective concentration (EC50) at mu opioid receptor (MOR) [1] (setting [4]) and on mu opioid receptor (MOR) [2] (setting [5]) was over 2.1 µM each time. Besides, the “cAMP Max. Resp.” value on mu opioid receptor (MOR) [2] (setting [8]) is on record as “E (E represents a maximal response of 40-60%)”.
Take `Cc1c(C2CCCCN2c2nc(Cl)ncc2F)cccc1C(F)(F)F` (stereo not drawn) [compound 135]: the “β-arr Max. Resp.” value at mu opioid receptor (MOR) [1] (setting [3]) is on record as “F (F represents a maximal response of > 60%)”. Besides, the results for the EC50 at mu opioid receptor (MOR) [1] (setting [4]) and on mu opioid receptor (MOR) [2] (setting [9]) were 0.7 to 2.1 µM and under 0.7 µM, respectively. Besides, at mu opioid receptor (MOR) [2] (setting [6]), the “cAMP Max. Resp.” value is on record as “D (D represents a maximal response of < 40%)”.
As to `FC(F)(F)c1cccc(C2CCCCN2c2ccnc(Cl)c2)c1` (stereo not drawn) [compound 359], the “β-arr Max. Resp.” value at mu opioid receptor (MOR) [1] (setting [3]) was “D (D represents a maximal response of < 40%)”. Further, the EC50 at mu opioid receptor (MOR) [1] (setting [4]) and on mu opioid receptor (MOR) [2] (setting [9]) was under 0.7 µM each time. Further, the “cAMP Max. Resp.” value on mu opioid receptor (MOR) [2] (setting [6]) is recorded as “D (D represents a maximal response of < 40%)”.
Take `CC1CCN(S(=O)(=O)c2ccc(Cl)cc2)C1c1ccc2c(c1)CCO2` (mixture of isomers) [Compound 91]: the “β-arr Max. Resp.” value on mu opioid receptor (MOR) [1] (setting [3]) is “F (F represents a maximal response of > 60%)”. In addition, the EC50 at mu opioid receptor (MOR) [1] (setting [4]) and at mu opioid receptor (MOR) [2] (setting [5]) was over 2.1 µM each time. Besides, the “cAMP Max. Resp.” value at mu opioid receptor (MOR) [2] (setting [6]) is on record as “D (D represents a maximal response of < 40%)”.
`Fc1cnc(Cl)nc1N1CCCCC1c1ccc(Cl)c(C(F)(F)F)c1` (stereo not drawn) [compound 128]: the “β-arr Max. Resp.” value at mu opioid receptor (MOR) [1] (setting [3]) is “F (F represents a maximal response of > 60%)”. Also, the results for the EC50 at mu opioid receptor (MOR) [1] (setting [4]) and at mu opioid receptor (MOR) [2] (setting [9]) were under 0.7 µM and 0.7 to 2.1 µM, respectively. For the same compound, on mu opioid receptor (MOR) [2] (setting [6]), the “cAMP Max. Resp.” value is reported as “E (E represents a maximal response of 40-60%)”.
For `COc1ccc(C2CCCCN2S(=O)(=O)c2ccn(C)n2)cc1Br` (stereo not drawn) [compound 483], the “β-arr Max. Resp.” value at mu opioid receptor (MOR) [1] (setting [7]) is “D (D represents a maximal response of < 40%)”. Also, the EC50 on mu opioid receptor (MOR) [1] (setting [4]) and at mu opioid receptor (MOR) [2] (setting [9]) was over 2.1 µM throughout. Also, at mu opioid receptor (MOR) [2] (setting [8]), the “cAMP Max. Resp.” value is “D (D represents a maximal response of < 40%)”.
Consider `O=S(=O)(c1ccc(Cl)cc1)N1CCCCC1c1nccc(C(F)(F)F)n1` (racemic) [compound 73], for which, on mu opioid receptor (MOR) [1] (setting [3]), the “β-arr Max. Resp.” value is “F (F represents a maximal response of > 60%)”. Also, the “β-arrestin Max Response” value on mu opioid receptor (MOR) [1] (β-arrestin recruitment, activity switching by MOR PAMs) is reported as “F (F represents a maximal response of >60%)”. Besides, the EC50 on mu opioid receptor (MOR) [1] (β-arrestin recruitment, activity switching by MOR PAMs, read-out: β-arrestin EC50) was over 2.1 µM; at mu opioid receptor (MOR) [1] (setting [4]), over 2.1 µM; at mu opioid receptor (MOR) [2] (adenylyl cyclase inhibition, activity switching by MOR PAMs, read-out: cAMP EC50), over 2.1 µM; at mu opioid receptor (MOR) [2] (setting [5]), over 2.1 µM. The “cAMP Max Resp.” value at mu opioid receptor (MOR) [2] (adenylyl cyclase inhibition, activity switching by MOR PAMs) is given as “D (D represents a maximal response of < 40%)”. Moreover, the “cAMP Max. Resp.” value on mu opioid receptor (MOR) [2] (setting [6]) is “D (D represents a maximal response of < 40%)”.
In the case of `CN(C)c1cccc(C2CCCCN2Cc2cc(Cl)ccc2F)n1` (stereo not drawn) [compound 149], the “β-arr Max. Resp.” value at mu opioid receptor (MOR) [1] (setting [3]) is “F (F represents a maximal response of > 60%)”. Also, the EC50 on mu opioid receptor (MOR) [1] (setting [4]) and on mu opioid receptor (MOR) [2] (setting [9]) was over 2.1 µM throughout. In addition, on mu opioid receptor (MOR) [2] (setting [6]), the “cAMP Max. Resp.” value is on record as “E (E represents a maximal response of 40-60%)”.

By EC50 is commonly meant the concentration that produces a half-maximal response.
